{"source": "patent US20250375436A1", "about": "“SERDEXMETHYLPHENIDATE FOR TREATMENT OF IDIOPATHIC HYPERSOMNIA” (ZEVRA THERAPEUTICS, INC., priority 2024, published 2025)", "type_in_all_cases": "in vivo, human", "key": {"adults with IH [1]": {"system": "adults with IH", "assay": "Phase 2 IH study: Sleep Inertia Visual Analog Scale (SI-VAS)", "conditions": "for SI-VAS, Mean, Titration Baseline: before treatment; for SI-VAS, Mean, Randomization Baseline (Week 5): end of open-label titration; for SI-VAS, Difference in LS Mean (SE): SDX vs placebo, ANCOVA; for Decrease in mean SI-VAS score: 5-week titration period", "description": "“Sleep Inertia Visual Analog Scale” or “SI-VAS,” as it relates to the present technology, is a psychometric response scale to assess how difficult it was for the patient to wake up in the morning. The SI-VAS is a unipolar scale anchored at 0 (“very easy”) and 100 (“very difficult”).\n(§1) A double-blind, placebo-controlled, randomized-withdrawal, dose-optimizing, multi-center study investigated the safety and efficacy of serdexmethylphenidate for the treatment of IH. Twenty-two (22) patients completed a 7-week study consisting of two parts. Part 1 of the trial comprised a five-week open-label titration phase during which patients were optimized to one of four total daily doses of serdexmethylphenidate (80, 160, 240, or 320 mg/day). About half the study participants were assigned to take the total daily dose of study drug once per day just before going to bed (QD dosing cohort). The other half was instructed to take half the daily dose of study drug in the morning after awakening and the second half of the daily dose just before going to bed (BID dosing cohort). The titration procedure during the 5-week open label period was conducted as follows: patient treatment was initiated with the lowest total daily dose (80 mg/day) regardless of dosing regimen. At subsequent clinical visits scheduled at intervals of about 1 week each, the dose of the patient was either decreased (except after the first week), maintained, or increased based on tolerability, clinical effect, and adverse events. Depending on the severities of any dose-limiting effects as determined by the clinician, the dose was decreased if possible or the patient was discontinued from the study. If the dose was tolerated by the patient and the clinician determined an opportunity to improve effectiveness, the dose of study drug was increased if possible. Otherwise, the dose was maintained in the subsequent week.\n(§2) Part 2 of the trial comprised a two-week randomized (2:1), double-blind, withdrawal phase, during which two-thirds of the trial participants continued to receive their optimized dose while the remaining one-third received placebo. During the withdrawal phase, patients continued the same dosing regimen (QD or BID) they were assigned to at treatment initiation and adhered to during the titration phase.\n(§3) Secondary efficacy endpoints included Excessive Daytime Sleepiness (EDS) assessed with the Epworth Sleepiness Scale (ESS). Additional secondary endpoints were based on the Idiopathic Hypersomnia Severity Scale (IHSS), daily rating of difficulty of waking up in the morning assessed with the Sleep Inertia Visual Analog Scale (SI-VAS), and rating of brain fog symptoms measured with an exploratory Brain Fog Scale (BFS). Scores on the ESS, IHSS, and BFS were based on a 1-week look-back period.\nThe SI-VAS is a unipolar scale anchored at 0 (“very easy”) and 100 (“very difficult”). The horizontal dashed line at an SI-VAS score of 50 points represents the midpoint between individuals finding it very easy to awaken and individuals finding it very difficult to awaken in the morning. SI-VAS Patients on the QD dosing schedule reported a decrease of about 33 points in mean SI-VAS score over the 5-week titration period while being treated with conjugate of d-methylphenidate, while patients on the BID dosing schedule reported a decrease in mean SI-VAS of about 24-30 points."}, "[2]": {"assay": "Comparator study with Ritalin: plasma d-MPH PK", "conditions": "for CL/F - Geo Mean: plasma d-MPH", "description": "Ritalin is a racemate of d-methylphenidate approved for treating narcolepsy, which is a similar disorder of hypersomnolence characterized by significant excessive daytime sleepiness. The PK profiles of patient administered 80 mg or 200 mg of serdexmethylphenidate are compared to the PK profiles of patients administered 40 mg of Ritalin twice, 5 hours apart, and a single dose of 80 mg of Ritalin."}, "adults with IH [3]": {"system": "adults with IH", "assay": "Phase 2 IH study: Epworth Sleepiness Scale (ESS)", "conditions": "for ESS, Mean, Titration Baseline: before treatment; for ESS, Mean, Randomization Baseline (Week 5): end of open-label titration; for ESS, Difference in LS Mean (SE): SDX vs placebo, ANCOVA", "description": "“Epworth Sleepiness Scale” or “ESS,” as it relates to the present technology, means a self-administered questionnaire with 8 questions. Respondents are asked to rate, on a 4-point scale (0-3), their usual chances of dozing off or falling asleep while engaged in eight different activities. Most people engage in those activities at least occasionally, although not necessarily every day. The ESS score (the sum of 8 item scores, 0-3) can range from 0 to 24. The higher the ESS score, the higher that person's average sleep propensity in daily life (ASP), or their ‘daytime sleepiness’. ESS score are generally interpreted as follows: 0-5, lower normal daytime sleepiness; 6-10 higher normal daytime sleepiness; 11-12, mild excessive daytime sleepiness; 13-15, moderate excessive daytime sleepiness; and 16-24, severe excessive daytime sleepiness. [https://epworthsleepinessscale.com/about-theess/]herein incorporated by reference.\nas §1, §2, §3\nThe minimally clinically important difference for the ESS scale is 2-3 points. The horizontal dashed line at an ESS score of 10 points marks the boundary between “normal” levels of daytime sleepiness and “excessive” levels of daytime sleepiness. Scores of 10 and less are generally considered “healthy” or “normal” levels of daytime sleepiness whereas scores greater than 10 are considered “excessive”."}, "[4]": {"conditions": "single 80 mg and single 200 mg doses"}}}
{"smiles": "COC(=O)[C@H](c1ccccc1)[C@H]1CCCCN1C(=O)OC[n+]1cccc(C(=O)N[C@@H](CO)C(=O)O)c1", "note": "[SDX, serdexmethylphenidate]", "values": [{"measurement": "SI-VAS, Mean Change from Randomization Baseline to Week 7", "setting": "adults with IH [1]; BID Cohort, SDX (N = 17)", "result": 1.1}, {"measurement": "SI-VAS, Mean, End of Withdrawal Period (Week 7)", "setting": "adults with IH [1]; BID Cohort, SDX (N = 17)", "result": 49.0}, {"measurement": "SI-VAS, Mean, Titration Baseline", "setting": "adults with IH [1]; BID Cohort, SDX (N = 17)", "result": 68.5}, {"measurement": "SI-VAS, Mean, Randomization Baseline (Week 5)", "setting": "adults with IH [1]; BID Cohort, SDX (N = 17)", "result": 45.0}, {"measurement": "SI-VAS, Difference in LS Mean (SE)", "setting": "adults with IH [1]; BID Cohort, p-value 0.104", "result": "−10.0 (5.98)"}, {"measurement": "Decrease in mean SI-VAS score", "setting": "adults with IH [1]; BID dosing schedule", "result": "24-30 points"}, {"measurement": "SI-VAS, Mean Change from Randomization Baseline to Week 7", "setting": "adults with IH [1]; QD Cohort, SDX (N = 15)", "result": 5.9}, {"measurement": "SI-VAS, Mean, End of Withdrawal Period (Week 7)", "setting": "adults with IH [1]; QD Cohort, SDX (N = 15)", "result": 40.4}, {"measurement": "SI-VAS, Mean, Titration Baseline", "setting": "adults with IH [1]; QD Cohort, SDX (N = 15)", "result": 68.8}, {"measurement": "SI-VAS, Mean, Randomization Baseline (Week 5)", "setting": "adults with IH [1]; QD Cohort, SDX (N = 15)", "result": 35.1}, {"measurement": "SI-VAS, Difference in LS Mean (SE)", "setting": "adults with IH [1]; QD Cohort, p-value 0.208", "result": "8.2 (6.39)"}, {"measurement": "Decrease in mean SI-VAS score", "setting": "adults with IH [1]; QD dosing schedule", "result": "about 33 points"}, {"measurement": "Increase in mean SI-VAS score", "setting": "adults with IH [1]; both QD and BID cohorts continuing treatment, 2-week withdrawal period", "result": "less than 6 points"}, {"measurement": "CL/F - Geo Mean", "setting": "[2]; SDX 80 mg (N = 14)", "result": "(283) L/h"}, {"measurement": "CL/F - Geo Mean", "setting": "[2]; SDX 200 mg (N = 14)", "result": "(304) L/h"}, {"measurement": "AUC0-24 and AUCinf compared to Ritalin", "setting": "[2]; [4]", "result": "higher"}, {"measurement": "Cmax concentrations compared to Ritalin", "setting": "[2]; [4]", "result": "lower"}, {"measurement": "Tmax compared to Ritalin", "setting": "[2]; [4]", "result": "longer"}, {"measurement": "ESS, Mean Change from Randomization Baseline to Week 7", "setting": "adults with IH [3]; BID Cohort, SDX (N = 17)", "result": 0.1}, {"measurement": "ESS, Mean, End of Withdrawal Period (Week 7)", "setting": "adults with IH [3]; BID Cohort, SDX (N = 17)", "result": 7.6}, {"measurement": "ESS, Mean, Titration Baseline", "setting": "adults with IH [3]; BID Cohort, SDX (N = 17)", "result": 16.5}, {"measurement": "ESS, Mean, Randomization Baseline (Week 5)", "setting": "adults with IH [3]; BID Cohort, SDX (N = 17)", "result": 7.5}, {"measurement": "ESS, Difference in LS Mean (SE)", "setting": "adults with IH [3]; BID Cohort, p-value 0.005", "result": "−5.6 (1.88)"}, {"measurement": "ESS, Mean Change from Randomization Baseline to Week 7", "setting": "adults with IH [3]; QD Cohort, SDX (N = 15)", "result": 0.0}, {"measurement": "ESS, Mean, End of Withdrawal Period (Week 7)", "setting": "adults with IH [3]; QD Cohort, SDX (N = 15)", "result": 7.5}, {"measurement": "ESS, Mean, Titration Baseline", "setting": "adults with IH [3]; QD Cohort, SDX (N = 15)", "result": 16.9}, {"measurement": "ESS, Mean, Randomization Baseline (Week 5)", "setting": "adults with IH [3]; QD Cohort, SDX (N = 15)", "result": 7.5}, {"measurement": "ESS, Difference in LS Mean (SE)", "setting": "adults with IH [3]; QD Cohort, p-value 0.818", "result": "0.5 (2.07)"}, {"measurement": "Decrease in mean ESS score", "setting": "adults with IH [3]; both QD and BID cohorts, end of the 5-week titration period", "result": "8-10 points"}]}
